Like-named read-outs stand apart in the source and are kept apart here.
Experiments:
Experiment in all cases: selectivity profiling in a panel of 340 wild-type kinases (Reaction Biology Europe)
Type in all cases: binding
340 wild-type kinases [1] = target: T1, 340 wild-type kinases (Homo sapiens, UniProt P06493)
T1 construct: purchased Reaction Biology Europe

340 wild-type kinases [2] = target: T2, 340 wild-type kinases (Homo sapiens, UniProt P07333)
T2 construct: purchased Reaction Biology Europe

340 wild-type kinases [3] = target: T3, 340 wild-type kinases (Homo sapiens, UniProt P29597)
T3 construct: purchased Reaction Biology Europe

340 wild-type kinases [4] = target: T4, 340 wild-type kinases (Homo sapiens, UniProt P51813)
T4 construct: purchased Reaction Biology Europe
T4 sequence (P51813 1-675): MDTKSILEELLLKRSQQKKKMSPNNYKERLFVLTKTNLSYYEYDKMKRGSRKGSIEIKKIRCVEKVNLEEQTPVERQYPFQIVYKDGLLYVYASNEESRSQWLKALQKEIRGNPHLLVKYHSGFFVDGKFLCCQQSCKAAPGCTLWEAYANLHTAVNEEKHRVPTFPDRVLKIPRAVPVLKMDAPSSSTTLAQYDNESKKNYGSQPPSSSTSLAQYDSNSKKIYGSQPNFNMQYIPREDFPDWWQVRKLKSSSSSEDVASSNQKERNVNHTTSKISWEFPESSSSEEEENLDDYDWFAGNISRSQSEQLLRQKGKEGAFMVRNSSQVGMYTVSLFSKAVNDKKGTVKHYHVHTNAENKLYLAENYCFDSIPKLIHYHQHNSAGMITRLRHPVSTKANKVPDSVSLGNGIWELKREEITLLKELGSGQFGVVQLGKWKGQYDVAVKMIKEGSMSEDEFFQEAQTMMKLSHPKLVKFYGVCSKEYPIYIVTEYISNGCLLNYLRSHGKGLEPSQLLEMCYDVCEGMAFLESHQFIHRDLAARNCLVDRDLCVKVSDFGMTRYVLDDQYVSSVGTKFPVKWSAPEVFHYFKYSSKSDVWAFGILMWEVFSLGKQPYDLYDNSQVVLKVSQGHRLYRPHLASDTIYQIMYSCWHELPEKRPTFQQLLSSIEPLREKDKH

340 wild-type kinases [5] = target: T5, 340 wild-type kinases (Homo sapiens, UniProt P54753)
T5 construct: purchased Reaction Biology Europe
T5 sequence (P54753 34-998): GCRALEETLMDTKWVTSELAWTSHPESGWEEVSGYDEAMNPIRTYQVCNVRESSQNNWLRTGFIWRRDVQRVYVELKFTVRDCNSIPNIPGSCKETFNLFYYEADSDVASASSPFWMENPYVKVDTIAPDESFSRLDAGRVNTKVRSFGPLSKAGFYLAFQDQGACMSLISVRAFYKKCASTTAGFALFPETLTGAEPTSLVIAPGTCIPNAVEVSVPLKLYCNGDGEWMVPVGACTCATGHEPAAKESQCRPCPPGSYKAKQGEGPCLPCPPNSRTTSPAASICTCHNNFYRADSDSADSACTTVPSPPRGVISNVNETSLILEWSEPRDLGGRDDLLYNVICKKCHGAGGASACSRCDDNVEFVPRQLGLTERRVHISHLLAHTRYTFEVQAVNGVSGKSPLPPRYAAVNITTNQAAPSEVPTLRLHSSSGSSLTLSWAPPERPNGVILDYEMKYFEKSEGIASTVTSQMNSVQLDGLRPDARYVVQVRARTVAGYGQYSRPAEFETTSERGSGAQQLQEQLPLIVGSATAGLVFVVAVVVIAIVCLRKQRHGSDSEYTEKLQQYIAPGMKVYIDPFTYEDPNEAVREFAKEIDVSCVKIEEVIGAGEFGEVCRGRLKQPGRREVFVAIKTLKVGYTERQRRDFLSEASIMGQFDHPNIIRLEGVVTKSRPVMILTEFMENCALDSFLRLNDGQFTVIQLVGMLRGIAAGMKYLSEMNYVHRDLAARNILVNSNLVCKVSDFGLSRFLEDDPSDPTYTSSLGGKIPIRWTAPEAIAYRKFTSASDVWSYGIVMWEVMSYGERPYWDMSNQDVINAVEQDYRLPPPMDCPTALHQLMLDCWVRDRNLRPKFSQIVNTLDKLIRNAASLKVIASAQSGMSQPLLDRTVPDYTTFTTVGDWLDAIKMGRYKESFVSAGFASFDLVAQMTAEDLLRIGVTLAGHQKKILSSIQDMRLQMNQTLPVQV

340 wild-type kinases [6] = target: T6, 340 wild-type kinases (Homo sapiens, UniProt Q04759)
T6 construct: purchased Reaction Biology Europe

340 wild-type kinases [7] = target: T7, 340 wild-type kinases (Homo sapiens, UniProt Q9P1W9)
T7 construct: purchased Reaction Biology Europe

340 wild-type kinases [8] = target: T8, 340 wild-type kinases (Homo sapiens, UniProt Q9Y4K4)
T8 construct: purchased Reaction Biology Europe
T8 sequence (Q9Y4K4 whole entry): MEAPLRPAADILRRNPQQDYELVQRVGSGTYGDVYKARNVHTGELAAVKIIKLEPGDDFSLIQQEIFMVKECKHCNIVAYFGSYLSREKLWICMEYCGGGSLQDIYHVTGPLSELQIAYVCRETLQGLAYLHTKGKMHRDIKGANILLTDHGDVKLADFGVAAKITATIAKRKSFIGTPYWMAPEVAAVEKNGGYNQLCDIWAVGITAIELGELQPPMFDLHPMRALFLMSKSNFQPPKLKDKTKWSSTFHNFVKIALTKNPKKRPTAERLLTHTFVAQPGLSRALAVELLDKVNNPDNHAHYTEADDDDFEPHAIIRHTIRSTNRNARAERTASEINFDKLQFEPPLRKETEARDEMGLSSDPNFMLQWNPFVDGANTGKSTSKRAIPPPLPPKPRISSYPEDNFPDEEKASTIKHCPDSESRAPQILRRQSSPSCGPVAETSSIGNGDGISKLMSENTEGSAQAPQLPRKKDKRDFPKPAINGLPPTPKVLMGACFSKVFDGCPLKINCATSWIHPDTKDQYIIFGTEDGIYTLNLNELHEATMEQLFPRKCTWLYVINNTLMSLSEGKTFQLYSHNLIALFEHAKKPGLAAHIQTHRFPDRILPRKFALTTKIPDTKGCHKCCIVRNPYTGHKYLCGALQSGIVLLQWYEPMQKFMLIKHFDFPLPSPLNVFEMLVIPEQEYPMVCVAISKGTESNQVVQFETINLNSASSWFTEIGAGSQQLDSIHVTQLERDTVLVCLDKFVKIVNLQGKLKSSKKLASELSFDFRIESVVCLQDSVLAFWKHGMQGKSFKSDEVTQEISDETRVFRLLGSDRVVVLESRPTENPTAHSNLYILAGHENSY

T6 sequence (Q04759 whole entry): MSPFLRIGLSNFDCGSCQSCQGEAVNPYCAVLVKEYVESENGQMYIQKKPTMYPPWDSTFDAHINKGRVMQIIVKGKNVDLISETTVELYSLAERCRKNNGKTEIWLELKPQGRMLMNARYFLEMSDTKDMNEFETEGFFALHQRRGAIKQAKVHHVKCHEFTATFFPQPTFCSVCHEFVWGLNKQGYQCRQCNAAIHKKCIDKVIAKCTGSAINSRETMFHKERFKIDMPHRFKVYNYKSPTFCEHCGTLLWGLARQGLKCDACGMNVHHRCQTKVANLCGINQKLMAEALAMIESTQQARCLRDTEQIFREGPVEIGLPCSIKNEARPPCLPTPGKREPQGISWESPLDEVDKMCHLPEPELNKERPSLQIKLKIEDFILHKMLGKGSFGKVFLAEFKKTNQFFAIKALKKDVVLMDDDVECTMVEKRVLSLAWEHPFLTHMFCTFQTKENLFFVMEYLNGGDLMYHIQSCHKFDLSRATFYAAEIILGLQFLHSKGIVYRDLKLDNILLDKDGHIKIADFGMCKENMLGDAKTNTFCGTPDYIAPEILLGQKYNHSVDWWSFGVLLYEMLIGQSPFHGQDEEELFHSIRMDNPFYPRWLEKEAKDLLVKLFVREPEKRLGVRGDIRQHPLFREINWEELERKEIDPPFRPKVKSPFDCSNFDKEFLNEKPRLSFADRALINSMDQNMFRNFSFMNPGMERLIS
T3 sequence (P29597 whole entry): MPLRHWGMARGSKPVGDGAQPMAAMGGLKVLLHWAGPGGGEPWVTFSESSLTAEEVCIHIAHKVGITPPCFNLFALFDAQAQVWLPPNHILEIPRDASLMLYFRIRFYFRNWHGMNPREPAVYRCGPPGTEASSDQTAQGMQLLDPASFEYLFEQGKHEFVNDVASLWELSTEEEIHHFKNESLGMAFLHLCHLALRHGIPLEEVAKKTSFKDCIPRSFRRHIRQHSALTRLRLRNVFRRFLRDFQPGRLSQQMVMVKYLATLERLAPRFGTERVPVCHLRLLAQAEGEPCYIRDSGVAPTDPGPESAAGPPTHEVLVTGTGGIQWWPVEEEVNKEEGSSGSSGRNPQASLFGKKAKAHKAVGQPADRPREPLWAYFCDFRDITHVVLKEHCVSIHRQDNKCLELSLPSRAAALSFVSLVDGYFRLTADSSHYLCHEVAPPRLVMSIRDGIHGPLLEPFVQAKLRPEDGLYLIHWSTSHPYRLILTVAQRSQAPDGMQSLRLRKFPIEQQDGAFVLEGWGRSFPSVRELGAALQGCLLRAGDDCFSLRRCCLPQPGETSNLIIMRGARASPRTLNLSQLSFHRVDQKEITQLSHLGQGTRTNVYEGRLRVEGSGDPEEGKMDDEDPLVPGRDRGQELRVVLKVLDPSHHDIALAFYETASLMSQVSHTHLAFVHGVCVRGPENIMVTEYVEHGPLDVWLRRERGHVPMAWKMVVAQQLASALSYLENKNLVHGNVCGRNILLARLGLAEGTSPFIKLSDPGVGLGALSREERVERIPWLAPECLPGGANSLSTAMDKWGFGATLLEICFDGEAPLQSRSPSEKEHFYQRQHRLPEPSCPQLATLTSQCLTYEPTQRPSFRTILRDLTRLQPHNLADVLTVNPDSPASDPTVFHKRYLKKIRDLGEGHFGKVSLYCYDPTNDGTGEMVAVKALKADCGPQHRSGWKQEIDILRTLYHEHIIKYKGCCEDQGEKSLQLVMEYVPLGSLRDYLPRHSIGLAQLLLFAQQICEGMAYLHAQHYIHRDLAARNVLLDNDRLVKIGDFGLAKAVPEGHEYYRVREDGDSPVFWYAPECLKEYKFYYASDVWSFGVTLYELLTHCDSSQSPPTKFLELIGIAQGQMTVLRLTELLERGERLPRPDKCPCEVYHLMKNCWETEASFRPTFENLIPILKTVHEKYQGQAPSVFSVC
T7 sequence (Q9P1W9 whole entry): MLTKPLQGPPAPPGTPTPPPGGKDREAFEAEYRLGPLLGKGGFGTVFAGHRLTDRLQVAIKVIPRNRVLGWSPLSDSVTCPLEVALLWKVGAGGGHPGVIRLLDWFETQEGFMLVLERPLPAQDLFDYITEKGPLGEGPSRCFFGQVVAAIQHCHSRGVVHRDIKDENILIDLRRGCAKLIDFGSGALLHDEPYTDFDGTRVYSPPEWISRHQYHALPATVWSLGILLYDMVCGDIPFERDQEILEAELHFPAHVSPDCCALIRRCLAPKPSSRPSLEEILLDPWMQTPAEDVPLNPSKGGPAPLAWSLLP
T2 sequence (P07333 20-972): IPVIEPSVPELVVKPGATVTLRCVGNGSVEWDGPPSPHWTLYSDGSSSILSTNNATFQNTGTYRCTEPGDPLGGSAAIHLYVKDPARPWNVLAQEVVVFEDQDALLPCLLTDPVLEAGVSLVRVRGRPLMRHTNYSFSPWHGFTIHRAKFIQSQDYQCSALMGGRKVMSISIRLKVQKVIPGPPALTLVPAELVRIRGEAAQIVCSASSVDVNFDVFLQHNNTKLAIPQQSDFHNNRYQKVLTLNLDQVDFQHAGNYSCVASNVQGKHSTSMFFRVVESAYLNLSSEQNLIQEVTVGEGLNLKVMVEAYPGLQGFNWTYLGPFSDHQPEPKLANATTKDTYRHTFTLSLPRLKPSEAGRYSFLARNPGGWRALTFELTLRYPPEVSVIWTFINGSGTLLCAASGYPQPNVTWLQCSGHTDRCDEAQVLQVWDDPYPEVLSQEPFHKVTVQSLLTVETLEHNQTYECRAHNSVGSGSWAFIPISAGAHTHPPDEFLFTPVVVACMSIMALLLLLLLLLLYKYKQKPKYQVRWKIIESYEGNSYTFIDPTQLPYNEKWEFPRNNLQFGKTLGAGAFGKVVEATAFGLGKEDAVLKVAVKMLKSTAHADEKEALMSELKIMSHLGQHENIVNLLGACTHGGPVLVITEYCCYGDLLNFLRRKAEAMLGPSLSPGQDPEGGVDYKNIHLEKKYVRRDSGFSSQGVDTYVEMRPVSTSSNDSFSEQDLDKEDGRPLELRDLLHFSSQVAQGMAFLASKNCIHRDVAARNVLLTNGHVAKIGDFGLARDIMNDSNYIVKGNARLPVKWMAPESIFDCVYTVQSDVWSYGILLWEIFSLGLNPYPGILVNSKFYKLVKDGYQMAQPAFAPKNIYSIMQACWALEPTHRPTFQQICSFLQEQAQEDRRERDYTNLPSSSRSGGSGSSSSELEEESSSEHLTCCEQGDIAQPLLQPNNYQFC
T1 sequence (P06493 whole entry): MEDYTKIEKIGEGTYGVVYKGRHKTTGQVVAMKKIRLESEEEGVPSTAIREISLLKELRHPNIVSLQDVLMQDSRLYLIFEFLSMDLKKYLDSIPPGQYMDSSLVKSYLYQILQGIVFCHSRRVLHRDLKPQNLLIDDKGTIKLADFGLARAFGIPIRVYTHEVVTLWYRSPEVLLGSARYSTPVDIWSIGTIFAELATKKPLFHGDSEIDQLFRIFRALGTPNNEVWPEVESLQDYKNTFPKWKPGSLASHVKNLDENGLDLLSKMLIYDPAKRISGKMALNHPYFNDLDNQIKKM

With `CNC(=O)c1ccc2c(c1)C(=O)c1ccc(Nc3ccc(F)c(NC(=O)C4CC4)c3)cc1CC2` [Compound 2015] the remaining activity at 0.2 µM (340 wild-type kinases [1]; 0.2 µM 2015, read-out: CDK1/CycA2 residual activity) was 99.4%, the remaining activity at 0.2 µM (340 wild-type kinases [1]; 0.2 µM 2015, read-out: CDK1/CycB1 residual activity) was 92.8% and the remaining activity at 0.2 µM (340 wild-type kinases [1]; 0.2 µM 2015, read-out: CDK1/CycE1 residual activity) was 100%. The remaining activity at 1 µM (340 wild-type kinases [1]; 1 µM 2015, read-out: CDK1/CycA2 residual activity) was 101%, the remaining activity at 1 µM (340 wild-type kinases [1]; 1 µM 2015, read-out: CDK1/CycB1 residual activity) was 83.7% and the remaining activity at 1 µM (340 wild-type kinases [1]; 1 µM 2015, read-out: CDK1/CycE1 residual activity) was 90.1%. The remaining activity at 0.2 µM (340 wild-type kinases [1]; CDK1/CycA2, 0.2 µM, read-out: residual activity) was 99.3%, the remaining activity at 1 µM (340 wild-type kinases [1]; CDK1/CycA2, 1 µM, read-out: residual activity) was 101% and the remaining activity at 0.2 µM (340 wild-type kinases [1]; CDK1/CycB1, 0.2 µM, read-out: residual activity) was 92.8%. The remaining activity at 1 µM (340 wild-type kinases [1]; CDK1/CycB1, 1 µM, read-out: residual activity) was 83.7%, the remaining activity at 0.2 µM (340 wild-type kinases [1]; CDK1/CycE1, 0.2 µM, read-out: residual activity) was 100% and the remaining activity at 1 µM (340 wild-type kinases [1]; CDK1/CycE1, 1 µM, read-out: residual activity) was 90.1%. The remaining activity at 0.2 µM (340 wild-type kinases [2]; 0.2 µM 2015, read-out: CSF1R residual activity) was 97.2%, the remaining activity at 1 µM (340 wild-type kinases [2]; 1 µM 2015, read-out: CSF1R residual activity) was 84% and the remaining activity at 0.2 µM (340 wild-type kinases [2]; CSF1R, 0.2 µM, read-out: residual activity) was 97.2%. For the same compound, the remaining activity at 1 µM (340 wild-type kinases [2]; CSF1R, 1 µM, read-out: residual activity) was 84%, the remaining activity at 0.2 µM (340 wild-type kinases [3]; 0.2 µM 2015, read-out: TYK2 residual activity) was 103% and the remaining activity at 1 µM (340 wild-type kinases [3]; 1 µM 2015, read-out: TYK2 residual activity) was 96.3%. It also gave a remaining activity at 0.2 µM (340 wild-type kinases [3]; TYK2, 0.2 µM, read-out: residual activity) of 103%, a remaining activity at 1 µM (340 wild-type kinases [3]; TYK2, 1 µM, read-out: residual activity) of 96.3% and a remaining activity at 0.2 µM (340 wild-type kinases [4]; 0.2 µM 2015, read-out: BMX residual activity) of 96.3%. For the same compound, the remaining activity at 1 µM (340 wild-type kinases [4]; 1 µM 2015, read-out: BMX residual activity) was 86.5%, the remaining activity at 0.2 µM (340 wild-type kinases [4]; BMX, 0.2 µM, read-out: residual activity) was 96.3% and the remaining activity at 1 µM (340 wild-type kinases [4]; BMX, 1 µM, read-out: residual activity) was 86.5%. It also gave a remaining activity at 0.2 µM (340 wild-type kinases [5]; 0.2 µM 2015, read-out: EPHB3 residual activity) of 97.2%, a remaining activity at 1 µM (340 wild-type kinases [5]; 1 µM 2015, read-out: EPHB3 residual activity) of 96.8% and a remaining activity at 0.2 µM (340 wild-type kinases [5]; EPHB3, 0.2 µM, read-out: residual activity) of 97.2%. The remaining activity at 1 µM (340 wild-type kinases [5]; EPHB3, 1 µM, read-out: residual activity) was 96.8%, the remaining activity at 0.2 µM (340 wild-type kinases [6]; 0.2 µM 2015, read-out: PKCtheta residual activity) was 108% and the remaining activity at 1 µM (340 wild-type kinases [6]; 1 µM 2015, read-out: PKCtheta residual activity) was 89.1%. The remaining activity at 0.2 µM (340 wild-type kinases [6]; PKCtheta, 0.2 µM, read-out: residual activity) was 108%, the remaining activity at 1 µM (340 wild-type kinases [6]; PKCtheta, 1 µM, read-out: residual activity) was 89% and the remaining activity at 0.2 µM (340 wild-type kinases [7]; 0.2 µM 2015, read-out: PIM2 residual activity) was 119%. It also gave a remaining activity at 1 µM (340 wild-type kinases [7]; 1 µM 2015, read-out: PIM2 residual activity) of 98.6%, a remaining activity at 0.2 µM (340 wild-type kinases [7]; PIM2, 0.2 µM, read-out: residual activity) of 119% and a remaining activity at 1 µM (340 wild-type kinases [7]; PIM2, 1 µM, read-out: residual activity) of 98.6%. For the same compound, the remaining activity at 0.2 µM (340 wild-type kinases [8]; 0.2 µM 2015, read-out: MAP4K5 residual activity) was 101%, the remaining activity at 1 µM (340 wild-type kinases [8]; 1 µM 2015, read-out: MAP4K5 residual activity) was 91.4% and the remaining activity at 0.2 µM (340 wild-type kinases [8]; MAP4K5, 0.2 µM, read-out: residual activity) was 101%. The remaining activity at 1 µM (340 wild-type kinases [8]; MAP4K5, 1 µM, read-out: residual activity) was 91.4%.

Source: publication PMC11864979, “First-in-class ultralong-target-residence-time p38α inhibitors as a mitosis-targeted therapy for colorectal cancer” (Nature Cancer, 2025)
